The numbers were not newly measured in paper PMC7126291 (Bioorganic & Medicinal Chemistry Letters, 2009), which cites them from elsewhere.

For one series, the system named is human rhinovirus. The note with it: Phase II clinical trials, intranasal delivery.

Molecules are shown by their SMILES.

On to `O=C(Oc1cncc(Br)c1)c1ccco1` [Compound 7], for which the IC50 in the series with HAV 3C^pro is 53 nM.

Turning to `CCOC(=O)/C=C/[C@H](C[C@@H]1CCNC1=O)NC(=O)[C@@H](CC(=O)[C@@H](NC(=O)c1cc(C)on1)C(C)C)Cc1ccc(F)cc1` [rupintrivir], the “reduction of mean total daily symptom score” value in the series with human rhinovirus is listed as 33%.
